Laboratory results reported in patent publication US9635859B2, “Pesticidal compositions and processes related thereto” (Dow AgroSciences LLC, priority 2012, dated 2017).

Tested on: Beet Armyworm (Spodoptera exigua)
Assay: Bioassays on BAW, 128-well diet tray assay
Assay type: in vivo
Settings: percent mortality, second instar larvae, 50 μg/cm^2 on artificial diet, five to seven days, 25° C.; Table 3
Description: Certain molecules disclosed in this document were tested against BAW and CEW and CL using procedures described in the following examples. In the reporting of the results, the “BAW & CEW & CL Rating Table” was used (See Table Section).
Bioassays on BAW (Spodoptera exigua)
Bioassays on BAW were conducted using a 128-well diet tray assay. one to five second instar BAW larvae were placed in each well (3 mL) of the diet tray that had been previously filled with 1 mL of artificial diet to which 50 μg/cm^2 of the test compound (dissolved in 50 μL of 90:10 acetone-water mixture) had been applied (to each of eight wells) and then allowed to dry. Trays were covered with a clear self-adhesive cover, and held at 25° C., 14:10 light-dark for five to seven days. Percent mortality was recorded for the larvae in each well; activity in the eight wells was then averaged. The results are indicated in the table entitled “Table 3: Assay Results” (See Table Section).

O=C(NC1CSC1)c1ccc(/C=C/C(c2cc(Cl)cc(Cl)c2)C(F)(F)F)cc1F (stereo not drawn) [AC61]
BAW Rating: A (50-100)

Cc1cc(/C=C/C(c2cc(Cl)c(F)c(Cl)c2)C(F)(F)F)ccc1C(=O)NC1CCOCC1 (stereo not drawn) [AC52]
BAW Rating: A (50-100)

Cc1cc(/C=C/C(c2cc(Cl)cc(Cl)c2)C(F)(F)F)ccc1C(=O)NC1CS(=O)(=O)C1 (stereo not drawn) [AC13]
BAW Rating: A (50-100)

FC(F)(F)C(/C=C/c1ccc(-n2cncn2)cc1)c1cc(Cl)cc(Cl)c1 (stereo not drawn) [DC1, (E)-1-(4-(3-(3,5-Dichlorophenyl)-4,4,4-trifluorobut-1-en-1-yl)phenyl)-1H-1,2,4-triazole]
BAW Rating: A (50-100)

Cc1cc(/C=C/C(c2cc(Cl)cc(Cl)c2)C(F)(F)F)ccc1C(=O)NCC(=O)NC1CSC1 (stereo not drawn) [AC41]
BAW Rating: A (50-100)

O=C(NCc1ccc(Cl)nc1)c1ccc(/C=C/C(c2cc(Cl)c(Cl)c(Cl)c2)C(F)(F)F)cc1Cl (stereo not drawn) [AC28]
BAW Rating: A (50-100)

Cc1cc(/C=C/C(c2cc(Cl)cc(Cl)c2)C(F)(F)F)ccc1C(=O)Nc1ccc(Cl)nc1 (stereo not drawn) [AC59]
BAW Rating: A (50-100)

CSCCC(=O)NCc1ccc(/C=C/C(c2cc(Cl)c(Cl)c(Cl)c2)C(F)(F)F)cc1Cl (stereo not drawn) [CC19]
BAW Rating: A (50-100)

O=C(NCc1ccc(/C=C/C(c2cc(Cl)c(Cl)c(Cl)c2)C(F)(F)F)cc1Cl)N1CCOCC1 (stereo not drawn) [CC34]
BAW Rating: A (50-100)

O=C(CC(F)(F)F)NCc1ccc(/C=C/C(c2cc(Cl)c(Cl)c(Cl)c2)C(F)(F)F)cc1 (stereo not drawn) [CC6]
BAW Rating: A (50-100)

O=C(NCc1ccc(/C=C/C(c2cc(Cl)c(Cl)c(Cl)c2)C(F)(F)F)cc1C(F)(F)F)c1cccnc1 (stereo not drawn) [CC23]
BAW Rating: A (50-100)

O=C(NCc1ccc(Cl)nc1)c1ccc(/C=C/C(c2cc(Cl)cc(Cl)c2)C(F)(F)F)cc1F (stereo not drawn) [AC49]
BAW Rating: A (50-100)

O=C(NC1CS(=O)(=O)C1)c1ccc(/C=C/C(c2cc(Cl)c(F)c(Cl)c2)C(F)(F)F)cc1F (stereo not drawn) [AC84]
BAW Rating: A (50-100)

N#Cc1cc(/C=C/C(c2cc(Cl)c(Cl)c(Cl)c2)C(F)(F)F)ccc1-n1cnc(NC(=O)C2CC2)n1 (stereo not drawn) [DC43, (E)-N-(1-(2-Cyano-4-(4,4,4-trifluoro-3-(3,4,5-trichlorophenyl)but-1-en-1-yl)phenyl)-1H-1,2,4-triazol-3-yl)cyclopropanecarboxamide]
BAW Rating: A (50-100)

N#Cc1cc(/C=C/C(c2cc(Cl)cc(Cl)c2)C(F)(F)F)ccc1-n1cnc([N+](=O)[O-])n1 (stereo not drawn) [DC37]
BAW Rating: A (50-100)

O=C(CC(F)(F)F)NCc1ccc(/C=C/C(c2cc(Cl)c(Cl)c(Cl)c2)C(F)(F)F)cc1F (stereo not drawn) [CC27]
BAW Rating: A (50-100)

O=C(NC1C[S+]([O-])C1)c1ccc(/C=C/C(c2cc(Cl)c(F)c(Cl)c2)C(F)(F)F)cc1F (stereo not drawn) [AC87]
BAW Rating: A (50-100)

Cc1cc(/C=C/C(c2cc(Cl)c(Cl)c(Cl)c2)C(F)(F)F)ccc1C(=O)NC1CSC1 (stereo not drawn) [AC23]
BAW Rating: A (50-100)

O=C(NCC(=S)NCC(F)(F)F)c1ccc(/C=C/C(c2cc(Cl)c(Cl)c(Cl)c2)C(F)(F)F)cc1Br (stereo not drawn) [AC92, (E)-2-Bromo-N-(2-thioxo-2-((2,2,2-trifluoroethyl)amino)ethyl)-4-(4,4,4-trifluoro-3-(3,4,5-trichlorophenyl)but-1-en-1-yl)benzamide]
BAW Rating: A (50-100)

O=C(NC1CS(=O)(=O)C1)c1ccc(/C=C/C(c2cc(Cl)c(Cl)c(Cl)c2)C(F)(F)F)cc1Cl (stereo not drawn) [AC30]
BAW Rating: A (50-100)

O=C(NC1CCCc2cc(/C=C/C(c3cc(Cl)c(Cl)c(Cl)c3)C(F)(F)F)ccc21)C1CC1 (stereo not drawn) [BC7]
BAW Rating: A (50-100)

C/C(=C\C(c1cc(Cl)cc(Cl)c1)C(F)(F)F)c1ccc(-n2cncn2)cc1 (stereo not drawn) [DC68, (E)-1-(4-(4-(3,5-Dichlorophenyl)-5,5,5-trifluoropent-2-en-2-yl)phenyl)-1H-1,2,4-triazole]
BAW Rating: A (50-100)

Cc1cc(/C=C/C(c2cc(Cl)cc(Cl)c2)C(F)(F)F)ccc1C(=O)NCC(=O)NC1CC1 (stereo not drawn) [AC40]
BAW Rating: A (50-100)

O=C(CNC(=S)c1ccc(/C=C/C(c2cc(Cl)c(Cl)c(Cl)c2)C(F)(F)F)cc1Br)NCC(F)(F)F (stereo not drawn) [AC91, (E)-2-(2-Bromo-4-(4,4,4-trifluoro-3-(3,4,5-trichlorophenyl)but-1-en-1-yl)phenylthioamido)-N-(2,2,2-trifluoroethyl)acetamide]
BAW Rating: A (50-100)

O=C(NCc1ccc(Cl)nc1)c1ccc(/C=C/C(c2cc(Cl)c(F)c(Cl)c2)C(F)(F)F)cc1F (stereo not drawn) [AC65]
BAW Rating: A (50-100)

O=C(NC1CS(=O)(=O)C1)c1ccc(/C=C/C(c2cc(Cl)cc(Cl)c2)C(F)(F)F)cc1F (stereo not drawn) [AC83, (E)-4-(3-(3,5-Dichlorophenyl)-4,4,4-trifluorobut-1-en-1-yl)-N-(1,1-dioxidothietan-3-yl)-2-fluorobenzamide]
BAW Rating: A (50-100)

FC(F)(F)C(/C=C/c1ccc(-n2cncn2)cc1Cl)c1cc(Cl)c(Cl)c(Cl)c1 (stereo not drawn) [DC66]
BAW Rating: A (50-100)

O=C(NCc1ccc(/C=C/C(c2cc(Cl)c(Cl)c(Cl)c2)C(F)(F)F)cc1C(F)(F)F)C1CC1 (stereo not drawn) [CC22]
BAW Rating: A (50-100)

O=C(NC1CS(=O)(=O)C1)c1ccc(/C=C/C(c2cc(Cl)c(Cl)c(Cl)c2)C(F)(F)F)cc1C(F)(F)F (stereo not drawn) [AC35]
BAW Rating: A (50-100)

CC(=O)NCc1ccc(/C=C/C(c2cc(Cl)cc(Cl)c2)C(F)(F)F)cc1Cl (stereo not drawn) [CC7, (E)-N-(2-Chloro-4-(3-(3,5-dichlorophenyl)-4,4,4-trifluorobut-1-en-1-yl)benzyl)acetamide]
BAW Rating: A (50-100)

COc1cc(/C=C/C(c2cc(Cl)c(F)c(Cl)c2)C(F)(F)F)ccc1C(=O)NC1CS(=O)(=O)C1 (stereo not drawn) [AC85]
BAW Rating: A (50-100)

CCC(=O)NCc1ccc(/C=C/C(c2cc(Cl)cc(Cl)c2)C(F)(F)F)cc1 (stereo not drawn) [CC4]
BAW Rating: A (50-100)

Cc1cc(/C=C/C(c2cc(Cl)c(F)c(Cl)c2)C(F)(F)F)ccc1C(=O)NCc1ccc(Cl)nc1 (stereo not drawn) [AC38]
BAW Rating: A (50-100)

Fc1ccc(C(/C=C/c2ccc(-n3cncn3)cc2)C(F)(F)F)cc1 (stereo not drawn) [DC7]
BAW Rating: A (50-100)

Cc1cc(/C=C/C(c2cc(Cl)cc(Cl)c2)C(F)(F)F)ccc1C(=O)NNc1ccccc1F (stereo not drawn) [AC17]
BAW Rating: A (50-100)

O=C(CC(F)(F)F)NCc1ccc(/C=C/C(c2cc(Cl)c(Cl)c(Cl)c2)C(F)(F)F)cc1C(F)(F)F (stereo not drawn) [CC24]
BAW Rating: A (50-100)

CS(=O)(=O)CCC(=O)NCc1ccc(/C=C/C(c2cc(Cl)c(Cl)c(Cl)c2)C(F)(F)F)cc1Cl (stereo not drawn) [CC30, (E)-N-(2-Chloro-4-(4,4,4-trifluoro-3-(3,4,5-trichlorophenyl)but-1-en-1-yl)benzyl)-3-(methylsulfonyl)propanamide]
BAW Rating: A (50-100)

O=C(CNC(=O)c1ccc(/C=C/C(c2cc(Cl)c(Cl)c(Cl)c2)C(F)(F)F)cc1Cl)NCC(F)(F)F (stereo not drawn) [AC64, (E)-2-Chloro-N-(2-oxo-2-((2,2,2-trifluoroethyl)amino)ethyl)-4-(4,4,4-trifluoro-3-(3,4,5-trichlorophenyl)but-1-en-1-yl)benzamide]
BAW Rating: A (50-100)

Cc1cc(/C=C/C(c2cc(Cl)c(Cl)c(Cl)c2)C(F)(F)F)ccc1-n1cncn1 (stereo not drawn) [DC63]
BAW Rating: A (50-100)

Cc1cc(/C=C/C(c2cc(Cl)c(F)c(Cl)c2)C(F)(F)F)ccc1C(=O)NCC(=O)NCC(F)(F)F (stereo not drawn) [AC69]
BAW Rating: A (50-100)

Cc1cc(/C=C\C(c2cc(Cl)cc(Cl)c2)C(F)(F)F)ccc1C(=O)NCC(=O)NC1CC1 (stereo not drawn) [AC93]
BAW Rating: A (50-100)

O=C(NCc1ccc(/C=C/C(c2cc(Cl)c(F)c(Cl)c2)C(F)(F)F)cc1Cl)C1CC1 (stereo not drawn) [CC15]
BAW Rating: A (50-100)
